Results from patent US20180000085A1, “USE OF PICOLINAMIDE COMPOUNDS WITH FUNGICIDAL ACTIVITY” (DOW AGROSCIENCES LLC, priority 2014, published 2018).

Assays:
Zymoseptoria tritici = experiment: Leaf blotch of wheat (SEPTTR) disease control on wheat seedlings; format: in vivo; parameters: key to SEPTTR 1DP, HV activity at 100 ppm (% control rating) / SEPTTR 3DC, HV activity at 100 ppm (% control rating) / SEPTTR disease control, 1DP / SEPTTR disease control, 3DC / SEPTTR 1DP disease control rating, HV activity / SEPTTR 3DC disease control rating, HV activity / SEPTTR 3DC, LV activity at 125.1 g/H (% Control rating) / SEPTTR 1DP, LV activity at 125.1 g/H (% Control rating) / SEPTTR 1DP disease control rating, LV activity at 125.1 g/H / SEPTTR 3DC disease control rating, LV activity at 125.1 g/H / SEPTTR 3DC disease control rating, HV activity at 100 ppm / SEPTTR 1DP disease control rating, HV activity at 100 ppm / HV activity at 100 ppm SEPTTR 3DC (disease control rating) / HV activity at 100 ppm SEPTTR 1DP (disease control rating) / LV activity at 125.1 g/H SEPTTR 1DP (disease control rating) / LV activity at 125.1 g/H SEPTTR 3DC (disease control rating): A: > 80; B: ≤ 80; C: Not Tested; D: No Activity Observed in the Reported Assay; conditions: for SEPTTR 1DP disease control rating, LV activity at 125.1 g/H / SEPTTR 3DC disease control rating, LV activity at 125.1 g/H: low volume application; for SEPTTR 1DP disease control rating, LV activity at 125.1 g/H / SEPTTR 1DP disease control rating, HV activity at 100 ppm: 1 day protectant; for SEPTTR 3DC disease control rating, LV activity at 125.1 g/H / SEPTTR 3DC disease control rating, HV activity at 100 ppm: 3 day curative; for SEPTTR 1DP disease control rating, HV activity at 100 ppm / SEPTTR 3DC disease control rating, HV activity at 100 ppm: high volume application
Puccinia triticina = experiment: Wheat brown rust (PUCCRT) disease control on wheat seedlings; format: in vivo; parameters: key to PUCCRT 3DC, HV activity at 100 ppm (% control rating) / PUCCRT disease control, 3DC / PUCCRT 1DP disease control rating, HV activity / PUCCRT 3DC disease control rating, HV activity / PUCCRT 3DC, LV activity at 125.1 g/H (% Control rating) / PUCCRT 1DP, LV activity at 125.1 g/H (% Control rating) / PUCCRT 3DC disease control rating, LV activity at 125.1 g/H / PUCCRT 1DP disease control rating, LV activity at 125.1 g/H / PUCCRT 3DC disease control rating, HV activity at 100 ppm / PUCCRT 1DP disease control rating, HV activity at 100 ppm / HV activity at 100 ppm PUCCRT 3DC (disease control rating) / LV activity at 125.1 g/H PUCCRT 1DP (disease control rating) / LV activity at 125.1 g/H PUCCRT 3DC (disease control rating): A: > 80; B: ≤ 80; C: Not Tested; D: No Activity Observed in the Reported Assay; conditions: for PUCCRT 1DP disease control rating, LV activity at 125.1 g/H / PUCCRT 3DC disease control rating, LV activity at 125.1 g/H: low volume application; for PUCCRT 1DP disease control rating, LV activity at 125.1 g/H / PUCCRT 1DP disease control rating, HV activity at 100 ppm: 1 day protectant; for PUCCRT 3DC disease control rating, LV activity at 125.1 g/H / PUCCRT 3DC disease control rating, HV activity at 100 ppm: 3 day curative; for PUCCRT 1DP disease control rating, HV activity at 100 ppm / PUCCRT 3DC disease control rating, HV activity at 100 ppm: high volume application

SMILES | SEPTTR 1DP disease control rating, LV activity at 125.1 g/H (Zymoseptoria tritici) | SEPTTR 3DC disease control rating, LV activity at 125.1 g/H (Zymoseptoria tritici) | PUCCRT 1DP disease control rating, LV activity at 125.1 g/H (Puccinia triticina) | PUCCRT 3DC disease control rating, LV activity at 125.1 g/H (Puccinia triticina) | SEPTTR 1DP disease control rating, HV activity at 100 ppm (Zymoseptoria tritici) | SEPTTR 3DC disease control rating, HV activity at 100 ppm (Zymoseptoria tritici) | PUCCRT 1DP disease control rating, HV activity at 100 ppm (Puccinia triticina) | PUCCRT 3DC disease control rating, HV activity at 100 ppm (Puccinia triticina)
CCC(CC)C(Oc1ccc(Cl)cc1Cl)C(C)OC(=O)C(CC(C)C)NC(=O)c1nccc(OC)c1OC(C)=O (stereo not drawn) [Cmpd 689] | D | B (≤ 80) | D | D |  |  |  | 
COc1ccnc(C(=O)NC(C)C(=O)OC(C)C(Oc2ccccc2)c2cccs2)c1OC(C)=O (stereo not drawn) [Cmpd 690] | B (≤ 80) | B (≤ 80) | B (≤ 80) | B (≤ 80) |  |  |  | 
C=CC[C@@H](Oc1ccccc1)[C@H](C)OC(=O)[C@H](C)NC(=O)c1nccc(OC)c1OC(C)=O [Cmpd 695] | B (≤ 80) | B (≤ 80) | A (> 80) | A (> 80) |  |  |  | 
C=CC[C@@H](Oc1ccc(Cl)cc1Cl)[C@H](C)OC(=O)[C@H](C)NC(=O)c1nccc(OC)c1OC(C)=O [Cmpd 697] | D | B (≤ 80) | A (> 80) | A (> 80) |  |  |  | 
C=CC[C@@H](Oc1ccccc1)[C@H](C)OC(=O)[C@H](C)NC(=O)c1nccc(OC)c1OCOC(C)=O [Cmpd 698] | B (≤ 80) | A (> 80) | A (> 80) | A (> 80) |  |  |  | 
C=CC[C@@H](Oc1ccc(Cl)cc1Cl)[C@H](C)OC(=O)[C@H](C)NC(=O)c1nccc(OC)c1OCOC(C)=O [Cmpd 700] | D | B (≤ 80) | A (> 80) | A (> 80) |  |  |  | 
COc1ccnc(C(=O)NCC(=O)O[C@@H](C)[C@H](Oc2ccccc2)C(C)C)c1O [Cmpd 809] |  |  |  |  | D | D | A (> 80) | A (> 80)
CC[C@H](NC(=O)c1nccc(OC)c1O)C(=O)O[C@@H](C)[C@H](Oc1ccccc1)C(C)C [Cmpd 810] |  |  |  |  | A (> 80) | A (> 80) | A (> 80) | A (> 80)
COc1ccnc(C(=O)N[C@H](C(=O)O[C@@H](C)[C@H](Oc2ccccc2)C(C)C)C(C)C)c1O [Cmpd 811] |  |  |  |  | B (≤ 80) | B (≤ 80) | A (> 80) | A (> 80)
COc1ccnc(C(=O)N[C@@H](CC(C)C)C(=O)O[C@@H](C)[C@H](Oc2ccccc2)C(C)C)c1O [Cmpd 813] |  |  |  |  | D | B (≤ 80) | B (≤ 80) | D
COc1ccnc(C(=O)N[C@@H](C)C(=O)O[C@@H](C)[C@H](Oc2cccc(F)c2)c2cccc(-c3ccccc3)c2)c1O [Cmpd 814] |  |  |  |  | D | D | B (≤ 80) | D
CC[C@H](OC(=O)[C@H](C)NC(=O)c1nccc(OC)c1O)[C@H](Oc1ccccc1)C(C)C [Cmpd 815] |  |  |  |  | B (≤ 80) | D | A (> 80) | A (> 80)
